These results are taken from patent US20260008788A1, “AZA-FUSED RING COMPOUND, PREPARATION METHOD THEREFOR, AND USE THEREOF IN MEDICINE” (SUZHOU ARK BIOPHARMACEUTICAL CO., LTD., priority 2022, published 2026).

By IC50 is commonly meant the midpoint of a concentration-inhibition curve. Low readings indicate inhibition by little substance, high ones a need for much substance.

For the experiment, the target named is T1, PDE4B2 (Homo sapiens, UniProt Q07343).
T1 construct: purchased BPS bioscience 60042
The experiment in a line: Inhibitory effect on PDE4 enzyme (AMP-Glo Assay kit), PDE4B2. Type of experiment: biochemical. As to conditions: cAMP substrate, 60 minutes at room temperature, AMP-Glo detection. The text has this:
PDE4 enzyme can hydrolyze cAMP to produce AMP. The synthetic PDE4 enzyme inhibitor act together with PDE4 enzyme and the substrate cAMP for a certain period of time, and then the AMP-Glo™ Assay kit was used for detection. The detection is divided into two steps: first, converting the AMP produced in the reaction into ADP, and second, converting ADP into ATP. ATP binds to the reagent and emits […]. The fluorescence value is detected using an […]. IC50 value of the PDE4 enzyme inhibitor was calculated by plotting a graph with the […] values. The specific details are as follows:
The compound plate was centrifuged at 1000 rpm for 1 minute.
% Inhibition={1−(Average RLU of the compound−Average RLU of the positive control of the whole plate)/(Average RLU of the negative control of the whole plate−Average RLU of the positive control of the whole plate)}
The IC50 is calculated by fitting the % inhibition values and the logarithm of the compound concentration to a non-linear regression (dose response-variable slope) using Graphpad 8.0.

T1 sequence (Q07343 1-564 isoform Q07343-2): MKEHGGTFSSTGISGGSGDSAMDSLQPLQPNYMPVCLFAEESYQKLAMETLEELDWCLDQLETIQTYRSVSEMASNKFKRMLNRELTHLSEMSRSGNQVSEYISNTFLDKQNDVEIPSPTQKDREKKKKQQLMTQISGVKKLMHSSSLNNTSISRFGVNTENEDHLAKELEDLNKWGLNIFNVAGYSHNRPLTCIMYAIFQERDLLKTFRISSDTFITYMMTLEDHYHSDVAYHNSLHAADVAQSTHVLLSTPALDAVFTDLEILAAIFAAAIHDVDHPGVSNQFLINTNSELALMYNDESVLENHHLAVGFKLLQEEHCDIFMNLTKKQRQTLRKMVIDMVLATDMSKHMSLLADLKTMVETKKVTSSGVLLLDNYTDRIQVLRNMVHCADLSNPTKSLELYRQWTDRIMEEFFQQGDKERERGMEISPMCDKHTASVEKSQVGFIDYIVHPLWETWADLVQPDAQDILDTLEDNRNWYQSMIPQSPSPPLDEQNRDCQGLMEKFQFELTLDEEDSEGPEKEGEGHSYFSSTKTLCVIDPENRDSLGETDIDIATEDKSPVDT

Compound `[O-][S@+]1CCc2nc(N3CCc4oc(C5CCCCC5)nc4C3)nc(NC3(CO)CCC3)c21` [Example 5, (R)-2-(2-cyclohexyl-6,7-dihydrooxazolo[4,5-c]pyridin-5(4H)-yl)-4-((1-(hydroxymethyl)cyclobutyl)amino)-6,7-dihydrothieno[3,2-d]pyrimidine 5-oxide] yielded an IC50 of 0.93 nM.

Regarding `[O-][S@+]1CCc2nc(N3CCc4c(cnn4-c4ccccc4)C3)nc(NC3(CO)CCC3)c21` [Example 12, (R)-4-((1-(hydroxymethyl)cyclobutyl)amino)-2-(1-phenyl-1,4,6,7-tetrahydro-5H-pyrazolo[4,3-c]pyridin-5-yl)-6,7-dihydrothieno[3,2-d]pyrimidine-5-oxide], the IC50 worked out at 0.63 nM.

Consider `Cc1cc(C(F)(F)F)c(CNc2nc(N3CCc4oc(-c5ccc(F)cc5)nc4C3)nc3c2[S@+]([O-])CC3)c(=O)[nH]1` [Example 17, (R)-3-(((2-(2-(4-fluorophenyl)-6,7-dihydrooxazolo[4,5-c]pyridin-5(4H)-yl)-5-oxido-6,7-dihydrothieno[3,2-d]pyrimidin-4-yl)amino)methyl)-6-methyl-4-(trifluoromethyl)pyridin-2(1H)-one], for which half-maximal inhibition (IC50) was put at 8.9 nM.

In the case of `COc1nc(C)cc(C)c1CNc1nc(N2CCc3oc(-c4ccc(F)cc4)nc3C2)nc2c1[S@+]([O-])CC2` [Example 18, (R)-2-(2-(4-fluorophenyl)-6,7-dihydrooxazolo[4,5-c]pyridin-5(4H)-yl)-4-(((2-methoxy-4,6-dimethylpyridin-3-yl)methyl)amino)-6,7-dihydrothieno[3,2-d]pyrimidine 5-oxide], the IC50 stood at 0.5 nM.

Compound `[O-][S@+]1CCc2nc(N3CCc4cc(-c5ncccn5)ccc4C3)nc(NC34CC(CO)(C3)C4)c21` [Example 24, (R)-4-((3-(hydroxymethyl)bicyclo[1.1.1]pentan-1-yl)amino)-2-(6-(pyrimidin-2-yl)-3,4-dihydroisoquinolin-2(1H)-yl)-6,7-dihydrothieno[3,2-d]pyrimidine 5-oxide] displayed an IC50 below 0.1 nM.
